Measured values reported in US20220331442A1, “ANTIBODY-BIOMOLECULE CONJUGATES LINKED THROUGH MULTIFUNCTIONAL MACROMOLECULE AND USES THEREOF” (LEVIM BIOTECH LLP, priority 2018, published 2022).

Legend:
MTT cytotoxicity assay = assay type: cell-based; conditions: human, H23 NSCLC cells; gefitinib alone at 50 μM, FIG. 21(b); read-out: Loss of viability of H23 cells
H23 NSCLC cells = assay: MTT cytotoxicity assay; assay type: cell-based; conditions: gefitinib alone, up to a concentration of 25 μM, FIG. 21(b)

For COc1cc2ncnc(Nc3ccc(F)c(Cl)c3)c2cc1OCCCN1CCOCC1 [gefitinib], the cytotoxicity at 50 μM (MTT cytotoxicity assay) was 70% and the “Cytotoxicity (MTT)” value (H23 NSCLC cells) was “no toxicity”.
